Source: US9447060B2, “Small molecule modulators of pRb inactivation” (The Wistar Institute of Anatomy and Biology, priority 2011, dated 2016)

Tests used:
SiHa cells = test: Cell cycle and apoptosis in SiHa cells, propidium iodide flow cytometry and morphology; type: cell-based; conditions: 48 hours
Method: Since the thiadiazolin-3,5-dione compounds bind to pRb, data was generated regarding their effect in cells infected with HPV. […] DNA content was determined by propidium iodine staining and analysis by flow cytometry.
Cultured cell lines were seeded in 60 mm tissue culture dishes (Falcon) at 1×10^5 cells/well. […] Cells were then trypsinized, washed with phosphate-buffered saline (1.0 mL; PBS), and fixed in ethanol (80%) for 30 minutes on ice. Fixed cells were spun at 500 g for 5 minutes, rehydrated with PBS (1 mL), and spun again to remove any traces of ethanol. Cells were stained with propidium iodide (250 μL; PI), which was prepared by adding PI (100 μL, 2 mg/ml, Sigma) and RNase A (3.5 μL of 30 mg/ml, Sigma) into PBS (10 mL). Cells were then analyzed at the Wistar Institute Flow Cytometry Core Facility using standard equipment, reagents, and methodologies known in the art.

[1] = biological target: T1, GST-pRbABC/E2F complex disrupted by 6×His-HPV1AE7CR2-3 (Homo sapiens, UniProt P06400); test: ELISA: inhibition of HPV1A-E7-mediated disruption of pRb/E2F complexes; type: binding, low risk HPV (type 1A); conditions: E2F remaining bound to pRb; 500 nM 1AE7
T1 construct: made in house; host or cells: pRb: Sf9; E2F1 and E7: E. coli BL21(DE3)
T1 sequence (P06400 376-928): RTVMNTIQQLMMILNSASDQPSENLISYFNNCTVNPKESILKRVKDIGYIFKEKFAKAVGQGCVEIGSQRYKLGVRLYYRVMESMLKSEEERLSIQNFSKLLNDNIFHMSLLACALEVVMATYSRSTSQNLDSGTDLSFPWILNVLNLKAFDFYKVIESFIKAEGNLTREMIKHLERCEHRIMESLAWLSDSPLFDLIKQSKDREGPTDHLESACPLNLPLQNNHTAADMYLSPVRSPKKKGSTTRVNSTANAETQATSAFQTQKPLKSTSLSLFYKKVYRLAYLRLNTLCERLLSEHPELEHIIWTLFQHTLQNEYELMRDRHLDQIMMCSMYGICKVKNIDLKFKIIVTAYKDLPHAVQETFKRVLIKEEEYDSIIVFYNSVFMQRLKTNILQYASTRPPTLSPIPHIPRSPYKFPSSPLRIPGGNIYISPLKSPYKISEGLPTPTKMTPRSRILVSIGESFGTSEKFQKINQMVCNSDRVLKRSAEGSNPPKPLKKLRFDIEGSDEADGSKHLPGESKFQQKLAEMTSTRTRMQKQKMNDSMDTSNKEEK
T1 sequence (Q01094 243-437 partner limits assumed): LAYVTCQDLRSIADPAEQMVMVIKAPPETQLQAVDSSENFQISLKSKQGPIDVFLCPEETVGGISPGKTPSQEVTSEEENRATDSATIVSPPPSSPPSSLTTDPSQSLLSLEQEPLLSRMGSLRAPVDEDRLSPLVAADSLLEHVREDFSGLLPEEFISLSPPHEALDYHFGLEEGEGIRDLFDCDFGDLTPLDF
Method: (§1) Since HPV-E7 mediates high affinity pRb binding through the association of its L×C×E motif in CR2 to the B domain of pRb, the ability of the thiadiazolidinedione compounds to inhibit the ability of other L×C×E containing viral oncoproteins from disrupting E2F/pRb complexes was tested. The other L×C×E containing viral oncoproteins tested included HPV-E7 from a low risk HPV form (type 1A) and Adenovirus E1A proteins.
(§2) A similar ELISA assay was used to assess the ability of the compounds to inhibit the ability of HPV16-E7-mediated disruption of E2F/pRb complexes. For these studies, 6×His-HPV1AE7CR2-3 and 6×His-Ad5E1ACR1-3, containing the L×C×E motif, were employed. The assay described above was modified in such a way that GST-pRbABC alone was added to HPV-E7CR2-3+ compound, HPV-E7CR2-3+DMSO, Ad5-E1ACR1-3+ compound, or Ad5-E1ACR1-3 DMSO. Mouse monoclonal anti-His antibody (Fisher) diluted 1:10,000 was used to detect how much His-E7CR2-3 remained bound to GST-pRbABC on the plate. Mouse monoclonal Ad5-E1A antibody (Abeam) diluted 1:10,000 was used to detect how much E1ACR1-3 remained bound to GST-pRbABC on the plate. All other steps remained unchanged.

[2] = biological target: T2, GST-pRbABC/E2F complex disrupted by 6×His-Ad5E1ACR1-3 (Homo sapiens, UniProt P06400); test: ELISA: inhibition of adenovirus E1A-mediated disruption of pRb/E2F complexes; type: binding; conditions: E2F remaining bound to pRb; 100 nM E1A
T2 construct: made in house; host or cells: pRb: Sf9; E2F1 and E1A: E. coli BL21(DE3)
T2 sequence (P06400 376-928): T1 sequence (P06400 376-928)
T2 sequence (Q01094 243-437 partner limits assumed): T1 sequence (Q01094 243-437 partner limits assumed)
Method: as §1, §2

[3] = biological target: T3, GST-pRbABC/6×His-HPV1AE7CR2-3 complex (Homo sapiens, UniProt P06400); test: ELISA: disruption of pRb/HPV1A-E7 complex; type: binding, low risk HPV (type 1A); conditions: disruption of pRb/viral oncoprotein complex; 500 nM 1AE7
T3 construct: made in house; host or cells: pRb: Sf9; E7: E. coli BL21(DE3)
T3 sequence (P06400 376-928): T1 sequence (P06400 376-928)
Method: as §2

[4] = biological target: T4, GST-pRbABC/6×His-Ad5E1ACR1-3 complex (Homo sapiens, UniProt P06400); test: ELISA: disruption of pRb/Ad5-E1A complex; type: binding, adenovirus; conditions: disruption of pRb/viral oncoprotein complex; 100 nM E1A
T4 construct: made in house; host or cells: pRb: Sf9; E1A: E. coli BL21(DE3)
T4 sequence (P06400 376-928): T1 sequence (P06400 376-928)
Method: as §2

pRbAB = biological target: T5, pRbAB (Homo sapiens, UniProt P06400, DEL590-635); test: Isothermal titration calorimetry binding to pRbAB; conditions: ITC, pRbAB, 22° C.
T5 construct: untagged pRbAB (372-787 with the linker from 590-635 removed); made in house
T5 sequence (P06400 with tags, fused parts or gaps DEL590-635): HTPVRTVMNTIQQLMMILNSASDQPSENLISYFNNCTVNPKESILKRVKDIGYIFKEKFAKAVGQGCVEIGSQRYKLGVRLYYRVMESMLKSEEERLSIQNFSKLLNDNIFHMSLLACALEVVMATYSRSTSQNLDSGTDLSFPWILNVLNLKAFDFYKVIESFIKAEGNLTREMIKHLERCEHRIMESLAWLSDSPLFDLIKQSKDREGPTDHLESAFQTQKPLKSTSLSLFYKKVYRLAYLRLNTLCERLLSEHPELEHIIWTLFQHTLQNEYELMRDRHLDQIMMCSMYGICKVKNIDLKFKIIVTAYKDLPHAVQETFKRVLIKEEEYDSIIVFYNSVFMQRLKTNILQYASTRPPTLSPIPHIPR
Method: For use in isothermal titration calorimetry studies, untagged pRbAB (372-787 with the linker from 590-635 removed) was prepared as described in Xiao et al., PNAS USA, 100:2363-2368 (2003).
This example illustrates the ability of the thiadiazolin-3,5-dione compounds to bind directly to a truncated pRb protein construct containing the A and B domains of the pRb pocket (pRbAB) using isothermal titration calorimetry (ITC).
Binding of compounds 1-9 to pRbAB were measured by ITC using a MicroCal™ VP-ITC isothermal titration calorimeter (MicroCal, Inc). Proteins were extensively dialyzed against a buffer containing Hepes (20 mM), pH=7.5, NaCl (150 mM) and Tris carboxy ethyl phosphine (0.1 mM) prior to analysis. Eight to twelve μL injections of 750-1500 μM compound were titrated into a pRb solution (50-150 μM) pre-equilibrated to 22° C. After subtraction of dilution heats, calorimetric data were analyzed with the MicroCal™ Origin® V5.0 (MicroCal Software, Northampton, Mass.).

[5] = biological target: T6, GST-pRbABC/6×His-HPV16-E7CR2-3 complex (Homo sapiens, UniProt P06400); test: ELISA: disruption of pRb/HPV16-E7 complex; type: binding; conditions: disruption of pRb/viral oncoprotein complex; 500 nM 16E7
T6 construct: made in house; host or cells: pRb: Sf9; E7: E. coli BL21(DE3)
T6 sequence (P06400 376-928): T1 sequence (P06400 376-928)
Method: An ELISA assay was utilized with modifications such that the amount of 6×His-HPV16-E7CR2-3 remaining bound to the partner protein on the plate could be measured. The compounds identified in Example 2 were purchased (Lankenau Institute for Medical Research) as powders. Their purity was verified by LC/MS and their structures by NMR. IC50 values were then measured for (i) the compounds identified in Example 1, (ii) the compounds prepared according to Examples 3-5, (iii) 2-phenyl-4-methyl-1,2,4-thiadiazolidin-3,5-dione (available from Molport, Latvia), and (iv) 4-benzyl-2-methyl-1,2,4-thiadiazolidin-3,5-dione (TDZD-8; Catalog No. T8325-5MG, Sigma) using the same ELISA-based assay as described for the high-throughput screen, except that the assay was performed manually in 96-well format and so all volumes used were double those from 384-well format.
All compounds were solubilized in DMSO (50 mM) and diluted for use in the ELISA-based assay at a final DMSO concentration of less than 5%. Ten-fold dilutions of thiadiazolin-3,5-dione compound (starting at 100 μM) were added to a mixture containing GST-pRbABC and 6×His-HPV16E7CR2-3. The amount of E7 remaining was determined by adding a primary anti-His antibody. The concentrations of the compounds in the IC50 experiment spanned the range of enzyme activity from no inhibition to complete inhibition. Three independent IC50 measurements were performed for each compound and the average and standard deviation values are reported. All data was imported into the GraphPad® Software (Prism) for IC50 determination. To calculate the IC50 values, the dose-response curves were fit to one-site (Hill slope=1) sigmoidal-dose-response curves.

SiHa cells (HPV 16) = test: MTS cytotoxicity in SiHa cells; type: cell-based; conditions: 48 hours
Method: These 120 compounds were then analyzed for cytotoxicity in cervical cancer cells either infected with HPV16 (SiHa) or negative for infection with HPV (C-33A) (Yee et al., 1985). The metabolic viability of cells was measured using a MTS assay (3-(4,5-dimethylthiazol-2-yl)-5-(3-carboxymethoxyphenyl)-2-(4-sulfophenyl)-2H-tetrazolium).
Cultured cell lines were seeded in 384-well, clear, tissue culture plates (NUNC) at 10,000 cells/well and 1,000 cells/well for C-33A and SiHa, respectively, and maintained overnight. These concentrations were determined based on each cell line's doubling time. […] Cell viability was then monitored by addition of MTS reagent (8 μL; Promega) and measurement at A490 using a Wallac Envision™ plate reader after 3 hours of incubation.
Cultured cell lines were seeded in 384-well, clear, tissue culture plates (NUNC) at 10,000 cells/well, 1,000 cells/well, 1,000 cells/well, 1,000 cells/well, and 2,000 cells/well for C-33A, SiHa, HeLa, TC-1, or HCT116 cells, respectively, and maintained overnight. These concentrations were determined based on each cell line's doubling time. […] Cell viability was then monitored by addition of MTS reagent (8 μL; Promega) and measurement at A490 using a Wallac Envision™ plate reader after 3 hours of incubation.

[6] = 10 μM compound (staurosporine 2 μM)
[7] = SiHa, 10 μM compound (staurosporine 2 μM)

SMILES	morphology of SiHa cells (SiHa cells)	effect on SiHa cells (SiHa cells; [6])	% Apoptotic (SiHa cells; [7]) [%]	% G0/G1 (SiHa cells; [7]) [%]	% G2/M (SiHa cells; [7]) [%]	% S (SiHa cells; [7]) [%]	IC50 [1] [µM]	IC50 [2] [µM]	IC50 [3] [µM]	IC50 [4] [µM]	Kd (pRbAB) [µM]	IC50 [5] [µM]	cytotoxicity in SiHa cells (SiHa cells (HPV 16))
Cn1c(=O)on(-c2ccc(Cl)c(Cl)c2)c1=O [2-(3,4-dimethyl-phenyl)-4-methyl-1,2,4-oxadiazolin-3,5-dione, reference compound]	maintained the elongated shape	no effect	0.9	71.8	16.3	11.3							
Cc1ccccc1-n1sc(=O)n(C(C)C)c1=O [Compound 1]							10.6 ± 1.3	2.8 ± 2.2	7.9 ± 2.1	5 ± 1.8	0.165 ± 0.052		
COn1c(=O)sn(-c2ccccc2C)c1=O [Compound 2]							3.5 ± 1.6	0.64	3 ± 2.3	2.6 ± 1.3	0.104 ± 0.025	0.57 ± 1.2	
Cc1cccc(-n2sc(=O)n(C(C)C)c2=O)c1 [Compound 5]							5.5 ± 1.5	1.1 ± 2.5	5.5 ± 2.7	3.5 ± 1.7	0.21 ± 0.051	3.2 ± 1.3	
COc1ccc(-n2sc(=O)n(C)c2=O)cc1 [Compound 6]							3.3 ± 1.6	1.7 ± 2.7	1.3 ± 1.3	7.7 ± 1.7	0.381 ± 0.031	0.4	
COc1cccc(-n2sc(=O)n(C)c2=O)c1 [Compound 7]							3.5 ± 1.7	3.2 ± 2.7	4 ± 2.5	2.8 ± 2.1	0.815 ± 0.07	0.29	
CN[C@@H]1C[C@H]2O[C@@](C)([C@@H]1OC)n1c3ccccc3c3c4c(c5c6ccccc6n2c5c31)C(=O)NC4 [Staurosporine, reference compound]		most drastically affected	34.3	31.3		13.8							toxic
